Test results taken from US7008937B2, “Porphyrins and metalloporphyrins for inhibiting heme iron uptake” (Frontier Scientific, Inc., priority 2003, dated 2006).
Read-outs that look alike come from different tables or passages of the source.

Legend:
[1] = system: rat duodenum; details: for inhibition of incorporation of radiolabeled heme into the animals: 4 animals (FIG. 8)
Source text: In this assay, Wistar rats were first anesthetized with pentobarbital. Wistar rats are from a strain originally developed at the Wistar Institute and commonly used all over the world for research. Following anesthesia, a midline incision was made in each of the rats. The duodenum of each animal was isolated between the pylorus and the ligament of Trietz by umbilical tape. The bile duct of each animal was then identified and ligated. Following this, a syringe was passed through the pylorus of each animal, and one ml of radiolabeled heme solution was introduced into the duodenum. The heme solutions used contained either only heme, or additionally included an appropriate concentration of an inhibitor to be evaluated.
Following introduction of the heme or heme/inhibitor solution, the duodenal loop of each animal was tied off. Heme absorption was allowed to continue for a period of 10 minutes. Following this absorption period, the duodenal loop of each rat was removed and the animal was killed. The rat carcass was counted in a whole body counter to determine the amount of radiolabeled heme isotope absorbed into the body from the duodenum.
The Wistar rats were divided into three groups of 4 animals each. Group 1 was used as a control group.
In this experiment, 5 animals were utilized in each of the control and testing groups. The incubation time period was extended to be fifteen minutes. […] The points seen in FIG. 9 represent the measurements obtained individual rats, while the shaded bars represent the mean value for each group of animals.

[2] = system: IEC-6 cells; assay: Inhibition of in vitro uptake of radiolabeled iron from heme in IEC-6 cells
Method: In a first assay, confluent monolayers of IEC-6 cells were incubated with radioactive iron-labeled heme. […] In this assay, the heme had been previously solubilized in taurodeoxycholate micelles. Twelve-well tissue culture plates were used with 1 ml of phosphate-buffered saline (or “PBS”) containing Ca, Mg and glucose. Cells were incubated with the heme solution and a designated inhibitor for times indicated at a temperature of 37° C.
After incubation, the cells were washed with 1 ml of the same buffer at 4° C. three times. The cells were then solubilized by the addition of 1 ml of water and sonicated for 10 minutes in a Branson sonicator. The cells were removed by titration and transferred to 75 ml tubes. Subsequently, the radioactivity of the cells was determined using a gamma counter.
For an initial screen, each compound was added at a concentration of 800 micromolar, and given a timed uptake period of over 60 minutes. […] The concentration of inhibitor required to get a 50% decrease in heme uptake inhibition counts was then determined.

[3] = 800 μM
Method: TMP (free base porphyrin) was used at 160 and 800 μM concentrations in the taurodeoxycholate-solubilized heme solution.

[4] = system: IEC-6 cells
[5] = 50 micromolar in duodenal loop, 15 minutes
Method: Subsequently, cardiac punctures were performed on the rats, and between 0.45 and 1.3 ml of blood were collected from each. The plasma of the blood samples was separated and precipitated overnight with 10% trichloroacetic acid.

[6] = system: K562 cells
Source text: In a next set of experiments, K562 cells were used to test toxicity of the porphyrins of the invention. K562 cells are erythroleukemia cells from a cell line derived from a chronic myeloid leukemia patient in blast crisis. K562 cells were selected for this testing based on their ability to grow in suspension. This characteristic renders cell counting more reliable.

[7] = read-out: concentration giving about 50% inhibition of heme iron uptake, titration with increasing amounts of inhibitor, uptake determined after 30 minutes
[8] = one of two cell lines (summary)

SMILES: C[n+]1ccc(-c2c3nc(c(-c4cc[n+](C)cc4)c4ccc([nH]4)c(-c4cc[n+](C)cc4)c4nc(c(-c5cc[n+](C)cc5)c5ccc2[nH]5)C=C4)C=C3)cc1 [TMP, meso-tetra(N-methyl-4-pyridyl) porphine]
- variation of inhibition in the group of animals ([1]; 800 μM, 10 minutes): considerable variation in inhibition
- inhibition of incorporation of iron from heme into the body of the animal ([1]; 160 and 800 μM in heme solution, 10 minutes (FIG. 7)): inhibition of iron uptake was observed
- IC50 ([2]; read-out: concentration at which heme uptake is inhibited (as seen in FIGS. 2 and 4), summary of Tables 1 and 2): ~750 µM
- IC50 [2, 7]: ~100 µM
- precipitation in the heme solution [3]: slight precipitate

SMILES: C[n+]1ccc(-c2c3nc(c(-c4cc[n+](C)cc4)c4ccc([n-]4)c(-c4cc[n+](C)cc4)c4nc(c(-c5cc[n+](C)cc5)c5ccc2[n-]5)C=C4)C=C3)cc1.[Cr+3] [Cr-TMP, Cr (III) meso-tetra(N-methyl-4-pyridyl) porphine]
- inhibition of incorporation of radiolabeled heme into the animals ([1]; 50 μM, 10 minutes): almost complete inhibition
- inhibition of incorporation of radiolabeled heme into the animals ([1]; 200 μM, 10 minutes): almost complete inhibition
- in vivo inhibition of heme-iron uptake (conclusion) ([1]; about 50 μM, 15 minutes (FIG. 9)): feasible in vivo
- concentration range in which active as inhibitor [2]: low micromolar range
- toxicity to the cell monolayer under the inverted microscope ([2]; 800 μM, 60 minutes): No toxicity to the cell monolayer was observed
- inhibition of heme iron uptake, timed uptake ([2]; 800 μM, over 60 minutes, 37 degrees (FIG. 3)): inhibition to approximately background
- inhibitory ability compared with the free base porphyrin ([2]; metal chelates of TMP): effective to still another order of magnitude
- IC50 [2, 7]: ~4 µM
- growth rate or extent ([4]; 50 μM, up to 7 days' exposure (FIG. 11)): no decrease in growth rate or extent
- concentration up to which no toxicity was observed ([4]; day 4 (FIG. 12)): about 100 μM
- toxicity at a high concentration relative to contemplated therapeutic dosage [4, 8]: no toxicity
- absorption across the intestinal wall [5]: essentially no absorption
- plasma level, bounded by limit of sensitivity of the measurement [5]: < 40 nM
- difference in plasma absorbance between control and treated groups ([5]; 447 nm): no difference
- growth rate of the cells ([6]; 50 micromolar in growth media (FIG. 10)): not decreased
- cell growth at higher concentrations ([6]; concentrations above 50 micromolar, growth slowed, cells remained viable): Some inhibition of cell growth
- toxicity at a high concentration relative to contemplated therapeutic dosage [6, 8]: no toxicity
- toxicity after prolonged exposure ([6]; two weeks of exposure): No toxicity
